Test results reported in patent publication US20210315810A1, “COMPOSITION CONTAINING A MUCOLYTIC AGENT FOR THE TREATMENT OF MUCUS HYPERSECRETION AND A DEVICE FOR THE DOSING THEREOF” (SOFAR S.P.A., priority 2018, published 2021).

Experiment: Viscosity of cystic fibrosis mucus before and after incubation with Compositions 5-12 (Experimental Part II)
Design: species or system human
Conditions: mucus from patients, in vitro

## CC(=O)N[C@@H](CS)C(=O)O [N-acetylcysteine, 2R-acetamido-3-sulfanylpropanoic acid]
  Effect on viscosity of bronchial mucus (in words): effective at reducing the viscosity of bronchial mucus
